# Measured values from PubChem BioAssay (NCI).
#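 Exposure lasted 48 hours, with cells grown in 96-well plates and compounds tested at five concentrations. Here, GI50 denotes the concentration required for 50% inhibition of growth. At the TGI there is no net growth.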
# Experiments:
# Experiment in all cases: NCI tumour cell line growth inhibition, 48 h
# SN12C renal = tested on: SN12C renal
# SNB-19 CNS = tested on: SNB-19 CNS
# A549 NSCLC = tested on: A549 NSCLC
# TK-10 renal = tested on: TK-10 renal
# MCF7 breast = tested on: MCF7 breast
# SW-620 colon = tested on: SW-620 colon
# HL-60(TB) leukemia = tested on: HL-60(TB) leukemia
# HT29 colon = tested on: HT29 colon
# OVCAR-4 ovarian = tested on: OVCAR-4 ovarian
# BT-549 breast = tested on: BT-549 breast
# OVCAR-8 ovarian = tested on: OVCAR-8 ovarian
# T-47D breast = tested on: T-47D breast
# U251 CNS = tested on: U251 CNS
# MDA-MB-231 breast = tested on: MDA-MB-231 breast
# SK-MEL-28 melanoma = tested on: SK-MEL-28 melanoma
# MDA-MB-435 = tested on: MDA-MB-435
# SK-MEL-5 melanoma = tested on: SK-MEL-5 melanoma
# HS 578T breast = tested on: HS 578T breast
# RPMI-8226 leukemia = tested on: RPMI-8226 leukemia
# K-562 leukemia = tested on: K-562 leukemia
# HOP-62 NSCLC = tested on: HOP-62 NSCLC
# M14 melanoma = tested on: M14 melanoma
# MALME-3M melanoma = tested on: MALME-3M melanoma
# IGROV1 ovarian = tested on: IGROV1 ovarian
# SK-MEL-2 melanoma = tested on: SK-MEL-2 melanoma
# HOP-92 NSCLC = tested on: HOP-92 NSCLC
# CCRF-CEM leukemia = tested on: CCRF-CEM leukemia
# KM12 colon = tested on: KM12 colon
# NCI-H460 lung = tested on: NCI-H460 lung
structure (smiles),measurement,setting,value
CCN(Cc1ccncc1)c1ccc(CO)c(Cl)c1,TGI,SN12C renal,> 100 µM
same,GI50,SNB-19 CNS,> 100 µM
same,TGI,SNB-19 CNS,> 100 µM
same,GI50,A549 NSCLC,8.48 µM
same,TGI,A549 NSCLC,> 100 µM
same,GI50,TK-10 renal,0.0945 µM
same,TGI,TK-10 renal,0.34 µM
same,GI50,MCF7 breast,0.589 µM
same,TGI,MCF7 breast,> 100 µM
same,GI50,SW-620 colon,3.74 µM
same,TGI,SW-620 colon,> 100 µM
same,GI50,HL-60(TB) leukemia,> 32 µM
same,TGI,HL-60(TB) leukemia,> 100 µM
same,GI50,HT29 colon,4.07 µM
same,TGI,HT29 colon,> 100 µM
same,GI50,OVCAR-4 ovarian,0.548 µM
same,TGI,OVCAR-4 ovarian,6.27 µM
same,GI50,BT-549 breast,> 100 µM
same,TGI,BT-549 breast,> 100 µM
same,GI50,OVCAR-8 ovarian,96.9 µM
same,TGI,OVCAR-8 ovarian,> 100 µM
same,GI50,T-47D breast,0.367 µM
same,TGI,T-47D breast,2.84 µM
same,GI50,U251 CNS,4.22 µM
same,TGI,U251 CNS,> 100 µM
same,GI50,MDA-MB-231 breast,> 100 µM
same,TGI,MDA-MB-231 breast,> 100 µM
same,GI50,SK-MEL-28 melanoma,> 100 µM
same,TGI,SK-MEL-28 melanoma,> 100 µM
same,GI50,MDA-MB-435,> 100 µM
same,TGI,MDA-MB-435,> 100 µM
same,GI50,SK-MEL-5 melanoma,23.8 µM
same,TGI,SK-MEL-5 melanoma,> 100 µM
same,GI50,HS 578T breast,> 100 µM
same,TGI,HS 578T breast,> 100 µM
same,GI50,RPMI-8226 leukemia,15.6 µM
same,TGI,RPMI-8226 leukemia,> 100 µM
same,GI50,K-562 leukemia,5.62 µM
same,TGI,K-562 leukemia,> 100 µM
same,GI50,HOP-62 NSCLC,5.03 µM
same,TGI,HOP-62 NSCLC,> 100 µM
same,GI50,M14 melanoma,> 100 µM
same,TGI,M14 melanoma,> 100 µM
same,GI50,MALME-3M melanoma,> 100 µM
same,TGI,MALME-3M melanoma,> 100 µM
same,GI50,IGROV1 ovarian,0.372 µM
same,TGI,IGROV1 ovarian,2.48 µM
same,GI50,SK-MEL-2 melanoma,> 24.7 µM
same,TGI,SK-MEL-2 melanoma,> 100 µM
same,GI50,HOP-92 NSCLC,2.69 µM
same,TGI,HOP-92 NSCLC,> 74.1 µM
same,GI50,CCRF-CEM leukemia,> 100 µM
same,TGI,CCRF-CEM leukemia,> 100 µM
same,GI50,KM12 colon,> 100 µM
same,TGI,KM12 colon,> 100 µM
same,GI50,NCI-H460 lung,0.638 µM
same,TGI,NCI-H460 lung,> 100 µM
